Measured values published in patent US11298314B2, “Injectable composition for localized fat reduction without pain, edema, and side effects, and method for preparing same” (AMI PHARM CO., LTD., priority 2017, dated 2022).

Legend:
[1] = system: inguinal fat pad; conditions: 0.2 ml s.c. once into inguinal fat pad, 8 days post-injection
[2] = system: tissues of the injected area (rat paw); assay: H&E staining histological test (inflammation) of injected rat paw; type: in vivo, Sprague Dawley rats; conditions: for Inflammation (H&E), BA % (w/v) 1.0: bile acid single composition 1.0% (w/v), injected rat paw
Procedure: The tissues of the injected area were dissected, fixed with 10% formalin, and then the specimen was prepared and images were captured using an optical microscope. The degree of inflammation was evaluated as follows.

[3] = system: paw of the rats; assay: Rat paw edema; type: in vivo, Sprague Dawley rats; conditions: for degree of edema in words: 2 hours after administration, rat paw; for degree of edema, 1 hour after administration / degree of edema, 2 hours after administration / degree of edema, Immediately after administration: 0.1 ml into rat paw
Procedure: (§1) To evaluate the degree of edema, each test compositions described above were injected into the paw of the rats. Specifically, male Sprague Dawley rats (6 weeks old) were purchased and used after one week of adaptation. The rats (body weight: 170˜200 g) were randomly selected and the thickness of the rat paw were measured with a caliper before the administration of the test compositions. In order to observe the edema, 0.1 ml of PBS and the various test compositions were administered to the paws of the rats. Measurements of the […] were performed by a caliper immediately before the injection, immediately after the injection, and 1 or 2 hours after the injection. In addition, when the thickness was measured, the skin lesion of the injection site was observed by photographing the sole of the paw (using a 4×4 cm scale).
The degree of edema was evaluated as 0 to 4 grades.

[4] = system: sole of the rat paws; assay: Measurement of skin lesion (erythema) on rat paw; type: in vivo, Sprague Dawley rats; conditions: for skin lesion (erythema) in words: 2 hours after administration;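 on grade of skin lesion (erythema), 1 hour after administration: grades − to ++++ mean no to extremely severe erythema versus before injection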;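 on grade of skin lesion (erythema), 2 hours after administration: grades − to ++++ mean no to extremely severe erythema versus before injection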;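 on grade of skin lesion (erythema), Immediately after administration: grades − to ++++ mean no to extremely severe erythema versus before injection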
Procedure: as §1
The grades of skin lesion were evaluated as 0 to 4 grades.

[5] = Formulation stability of PPC injectable preparations: property, transparency, particle size, pH; conditions: for bile acid/PPC molar ratio below which a substantially stable formulation did not occur: PPC 5.0%; for bile acid concentration at which stable injectable preparations can be made: based on PPC 5.0%
Procedure: The particle size was measured using a nano particle size analyzer (Microtrac Wave, MICROTRACT, USA). […] The transparency was measured using a spectrophotometer (CM-3600d, KONICA MINOLTA, JAPAN). The pH was measured with a pH meter (ST3100, OHAUS, GERMANY), and the isotonicity was measured with an osmotic pressure meter (Vapro 5600, Elitech Group, Tokyo, Japan), and viscosity was analyzed using a viscometer (Digital Viscometer CL-2, CAS, Korea).
The washed and sterilized preparation tank was charged with the water for injection (at room temperature), and phosphatidylcholine (PPC) and benzyl alcohol were added thereto, and the mixture was stirred at 200 RPM for 2 hours under the condition of nitrogen pressure, shading and room temperature. After the completion of stirring, the mixture was transferred to an ultra-high pressure homogenizer (Nano Disperser NLM100, Ilshin Autoclave, Korea) with a nitrogen pressure. Ultra-high pressure homogenization (dispersion) was carried out at 12,000 psi for 7 cycles, and the particles were finely pulverized. Then, the pH was adjusted. After filtration through a 0.2 μm filter, the vial was filled and sealed.
Specifically, the water for injection was put into the preparation tank which was cleaned and sterilized (room temperature), and sodium hydroxide was added to the water for injection. Then deoxycholic acid and benzyl alcohol were added, stirred and dissolved. Then, phosphatidylcholine was added thereto, and the mixture was stirred at 200 RPM for about 24 hours under shading, sealing, room temperature (25° C.), and nitrogen pressure. After completion of the stirring, the pH was adjusted (if necessary, with additional sodium hydroxide or hydrochloric acid), and it was filtered through a 0.2 μm filter, and filled into the vial and sealed.
Then glycocholic acid and benzyl alcohol were added, stirred and dissolved. Then, phosphatidylcholine was added thereto, and the mixture was stirred at 200 RPM for about 24 hours under shading, sealing, room temperature (25° C.), and nitrogen pressure. After completion of the stirring, the pH was adjusted (if necessary, with additional sodium hydroxide or 0.001-0.6% of hydrochloric acid), and it was filtered through a 0.2 μm filter, and filled into the vial and sealed.
The formulation stability of the PPC injectable compositions solubilized with glycocholic acid (GCA) in Tables 3 and 4 was evaluated immediately after the preparation and 30 days after the preparation (refrigerated storage).

[6] = bile acid single composition 1.0% (w/v)
[7] = bile acid single composition 2.5% (w/v)
[8] = bile acid single composition 5.0% (w/v)
[9] = bile acid single composition 7.5% (w/v)

Compound | Inflammation (H&E), BA % (w/v) 1.0 [2] | degree of edema, 1 hour after administration [3, 6] | degree of edema, 2 hours after administration [3, 6] | degree of edema, Immediately after administration [3, 6] | degree of edema, 1 hour after administration [3, 7] | degree of edema, 2 hours after administration [3, 7] | degree of edema, Immediately after administration [3, 7] | degree of edema, 1 hour after administration [3, 8] | degree of edema, 2 hours after administration [3, 8] | degree of edema, Immediately after administration [3, 8] | degree of edema, 1 hour after administration [3, 9] | degree of edema, 2 hours after administration [3, 9] | degree of edema, Immediately after administration [3, 9] | grade of skin lesion (erythema), 1 hour after administration [4, 6] | grade of skin lesion (erythema), 2 hours after administration [4, 6] | grade of skin lesion (erythema), Immediately after administration [4, 6] | grade of skin lesion (erythema), 1 hour after administration [4, 7] | grade of skin lesion (erythema), 2 hours after administration [4, 7] | grade of skin lesion (erythema), Immediately after administration [4, 7] | grade of skin lesion (erythema), 1 hour after administration [4, 8] | other results
CC(C)NCC(O)c1ccc(O)c(O)c1 (stereo not drawn) [Isuprel] |  |  |  |  |  |  |  |  |  |  |  |  |  |  |  |  |  |  |  |  | histological change of adipocytes in fat tissue [1]: size of the adipocytes was reduced
C[C@H](CCC(=O)NCCS(=O)(=O)O)[C@H]1CC[C@H]2C3CC[C@@H]4C[C@H](O)CC[C@]4(C)[C@H]3C[C@H](O)[C@]12C (stereo partly drawn) [TDCA, 2-[[(4R)-4-[(3R,5R,9S,10S,12S,13R,14S,17R)-3,12-dihydroxy-10,13-dimethyl-2,3,4,5,6,7,8,9,11,12,14,15,16,17-tetradecahydro-1H-cyclopenta[a]phenanthren-17-yl]pentanoyl]amino]ethanesulfonic acid] | ++ | +++ (severe edema [+++, (the degree of swelling was 40-60% compared to before the injection)]) | +++ (severe edema [+++, (the degree of swelling was 40-60% compared to before the injection)]) | ++ (moderate edema [++, (the degree of swelling was 20-40% compared to before the injection)]) | +++ (severe edema [+++, (the degree of swelling was 40-60% compared to before the injection)]) | +++ (severe edema [+++, (the degree of swelling was 40-60% compared to before the injection)]) | ++ (moderate edema [++, (the degree of swelling was 20-40% compared to before the injection)]) | ++++ (extremely severe edema [++++, (the degree of swelling was 60% or more compared to before the injection)]) | ++++ (extremely severe edema [++++, (the degree of swelling was 60% or more compared to before the injection)]) | ++ (moderate edema [++, (the degree of swelling was 20-40% compared to before the injection)]) | ++++ (extremely severe edema [++++, (the degree of swelling was 60% or more compared to before the injection)]) | ++++ (extremely severe edema [++++, (the degree of swelling was 60% or more compared to before the injection)]) | ++ (moderate edema [++, (the degree of swelling was 20-40% compared to before the injection)]) | +++ | ++ | + | +++ | +++ | ++ | ++++ | degree of inflammation (H&E) in words ([2]; rats sacrificed at 3 hours, injected paw): Moderate; degree of edema in words ([3]; listed as TDCA 2.5%): “severe” and “extremely severe”; skin lesion (erythema) in words ([4]; listed as TDCA 1.0%): Moderate; skin lesion (erythema) in words ([4]; listed as TDCA 2.5%): “severe” and “extremely severe”; grade of skin lesion (erythema), 2 hours after administration [4, 8]: ++++; grade of skin lesion (erythema), Immediately after administration [4, 8]: ++; grade of skin lesion (erythema), 1 hour after administration [4, 9]: ++++; grade of skin lesion (erythema), 2 hours after administration [4, 9]: ++++; grade of skin lesion (erythema), Immediately after administration [4, 9]: ++; bile acid/PPC molar ratio below which a substantially stable formulation did not occur [5]: less than 0.74; bile acid concentration at which stable injectable preparations can be made [5]: ≥ 2.3%
C[C@H](CCC(=O)O)[C@H]1CC[C@H]2[C@@H]3[C@@H](O)C[C@@H]4C[C@H](O)CC[C@]4(C)[C@H]3CC[C@]12C [UDCA, (4R)-4-[(3R,5S,7S,8R,9S,10S,13R,14S,17R)-3,7-dihydroxy-10,13-dimethyl-2,3,4,5,6,7,8,9,11,12,14,15,16,17-tetradecahydro-1H-cyclopenta[a]phenanthren-17-yl]pentanoic acid] | +++ | ++ (moderate edema [++, (the degree of swelling was 20-40% compared to before the injection)]) | ++ (moderate edema [++, (the degree of swelling was 20-40% compared to before the injection)]) | ++ (moderate edema [++, (the degree of swelling was 20-40% compared to before the injection)]) | +++ (severe edema [+++, (the degree of swelling was 40-60% compared to before the injection)]) | ++++ (extremely severe edema [++++, (the degree of swelling was 60% or more compared to before the injection)]) | ++ (moderate edema [++, (the degree of swelling was 20-40% compared to before the injection)]) | ++++ (extremely severe edema [++++, (the degree of swelling was 60% or more compared to before the injection)]) | ++++ (extremely severe edema [++++, (the degree of swelling was 60% or more compared to before the injection)]) | ++ (moderate edema [++, (the degree of swelling was 20-40% compared to before the injection)]) | ++++ (extremely severe edema [++++, (the degree of swelling was 60% or more compared to before the injection)]) | ++++ (extremely severe edema [++++, (the degree of swelling was 60% or more compared to before the injection)]) | ++ (moderate edema [++, (the degree of swelling was 20-40% compared to before the injection)]) | ++ | ++ | + | ++ | +++ | ++ | ++++ | degree of edema in words ([3]; listed as UDCA 1.0%): moderate; degree of edema in words ([3]; listed as UDCA 2.5%): “severe” and “extremely severe”; skin lesion (erythema) in words ([4]; listed as UDCA 1.0%): Moderate; skin lesion (erythema) in words ([4]; listed as UDCA 2.5%): “severe” and “extremely severe”; grade of skin lesion (erythema), 2 hours after administration [4, 8]: ++++; grade of skin lesion (erythema), Immediately after administration [4, 8]: ++; grade of skin lesion (erythema), 1 hour after administration [4, 9]: ++++; grade of skin lesion (erythema), 2 hours after administration [4, 9]: ++++; grade of skin lesion (erythema), Immediately after administration [4, 9]: ++; bile acid/PPC molar ratio below which a substantially stable formulation did not occur [5]: less than 1.12; bile acid concentration at which stable injectable preparations can be made [5]: ≥ 2.7%
